In US7041639B2, “Depsipeptide and congeners thereof for use as immunosuppressants” (XCYTE Therapies, Inc., priority 1999, dated 2006):

How the values were obtained:
bulk phosphorylation = test: Phosphotyrosine Western blots; type: cell-based
Description: FR901228 has a number of features that aid its ability to act as a potent immunosuppressant. […] Thus, these observations indicate that compounds of structure (I) affect the T-cell activation pathway at multiple points, thus allowing activation to proceed into early stages, such as phosphorylation, but preventing subsequent events of activation and proliferation.

[1] = tested on: peripheral blood lymphocyte (PBL); test: Proliferation by MTT assay, PBL cultures; type: cell-based, human
Method: (§1) Cells isolated from human blood are grown in X-vivo media (Biowhittaker Inc., Walkersville, Md.) and depending on use supplemented with or without 20 U/ml IL-2 (Boehringer Mannheim, Indianapolis, Ind.) and supplemented with 5% human serum (Biowhittaker), 2 mM Glutamine (Life Technologies, Rockville, Md.) and 20 mM HEPES (Life Technology). Jurkat E6-1 cells (ATCC, Manassas, Va.) are grown in RPMI 1640 (Life Technologies) supplemented with 10% fetal bovine serum (FBS) (Biowhittaker), 2 mM glutamine (Life Technologies), […] (Life Technologies), and […] (Life Technologies).
(§2) Buffy coats from healthy human volunteer donors are obtained (American Red Cross, Portland, Oreg.). Peripheral blood mononuclear cells (PBMC) are obtained using Lymphocyte Separation Media (ICN Pharmaceuticals, Costa Mesa, Calif.) according to the manufacturers' instructions.
Peripheral blood lymphocytes (PBL) are obtained from the PBMC fraction by incubation in a culture flask (Costar, Pittsburgh, Pa.) or with uncoated Dynabeads (Dynal, Oslo, Norway), 1×10^8 cells/ml, 2 beads/cell, 2 h at 37° C. Monocytes and macrophages are removed by adherence to the culture flask or phagocytoze the paramagnetic beads that are depleted by magnetic cell separation according to the manufacture's instruction (Dynal). […] The purity of CD4 cells are routinely 91–95% as measured by flow cytometry. […]

CD4 cells [2] = test: Intracellular DNA content by propidium iodide staining (cell cycle); type: cell-based, human; conditions: 3×28 beads 24 hours; 10 to 100 ng/ml; FIG. 12
Method: Unstimulated and stimulated (3×28 bead stimulation) CD4 cells were incubated with varying concentrations FR901228 and the intracellular DNA content was measured by staining with propidium iodide (PI) using standard procedures. In brief, the cells were stained with a mixture of 1 μg/ml PI and 0.03% saponin in PBS for about 20 to 30 minutes. […] Accordingly, FR901228 appears to inhibit the cell cycle of activated T-cells prior to entry of S-phase.

CD4 cells [3] = test: Proliferation by MTT assay, purified CD4 cell cultures; type: cell-based, human; conditions: for concentration with no significant effect on proliferation of CD4 cells / lowest concentration that completely inhibits proliferation of CD4 cells: MTT day 3; for lowest concentration that completely inhibits proliferation of CD4 cells: 2 hour incubation prior to stimulation
Method: as §1, §2
Peripheral blood lymphocytes (PBL) are obtained from the PBMC fraction by incubation in a culture flask (Costar, Pittsburgh, Pa.) or with uncoated Dynabeads (Dynal, Oslo, Norway), 1×10^8 cells/ml, 2 beads/cell, 2 h at 37° C. Monocytes and macrophages are removed by adherence to the culture flask or phagocytoze the paramagnetic beads that are depleted by magnetic cell separation according to the manufacture's instruction (Dynal). CD4 cells are purified from the PBL fraction by incubation with 10 μg/ml of monoclonal antibodies against CD8 (clone G10-1), CD20 (clone IF5), CD14 (clone F13) and CD16 (Coulter), 10^8 cells/ml, 20 min at 4° C. After washing, cells are depleted twice with sheep anti-mouse Ig-coupled dynabeads (10^6 cells/ml, 6 beads/cell, 20 min at 4° C.) and magnetic cell separation. The purity of CD4 cells are routinely 91–95% as measured by flow cytometry.
Dendritic cells are generated from PBMC adhering to the culture flask (Costar), 10^8 cells/ml, 2 h at 37° C. (without Dynabeads). After extensive washing, adherent cells are cultured for 7 days in media containing 500 U/ml GM-CSF (Boehringer-Mannheim) and 12.5 U/ml IL-4 (Boehringer-Mannheim). The resulting cell population is weakly adherent and expresses surface markers characteristic of dendritic cells (positive for HLA-DR, CD86, CD83, CD11c and negative for CD4). (note:all antibodies obtained from Becton Dickinson, Calif.).
Cells are stimulated by three different methodologies 1) Dynabeads (M-450) covalently coupled to anti-CD3 (OKT-3) and anti-CD28 (9.3) antibodies (3×28 beads) according to the manufacturer's instructions (Dynal), 3 beads/cell, 2) Ionomycin (Calbiochem, La Jolla, Calif.) (100 ng/ml) and phorbol 12-myristate-13-acetate (PMA) (Calbiochem) (10 ng/ml), 3) allogeneic dendritic cells (25,000 dendritic cells/200,000 CD4 cells). All cells are stimulated at a concentration of 1×10^6 cells/ml. Cells are incubated with compounds of structure (I) (e.g., FR901228) (NCI, Bethesda, Md.) for 1 to 2 hours prior to stimulation as outlined above. Proliferation assays are conducted in quadruplicate in 96 well flat-bottom plates. Cells are stimulated at 1×10^6 cells/ml in a final volume of 200 μl. Proliferation is measured by MTT assay (MTT assay kit, Chemicon International Inc., Temecula, Calif.) at day 3 (stimulation method 1 and 2) or at day 6 (stimulation method 3), and results are presented as mean value of quadruplicates. PBL cultures or purified CD4 cell cultures are stimulated with 3×28 beads, ionomycin/PMA or allogenic dendritic cells. […] Further, […] cell survival is not affected by FR901228, as assessed by sub-G1 DNA measurement and integrity of the cell membrane (FIG. 5D). Lack of cytotoxicity of FR901228 is in agreement with results described by Byrd et al, Blood 94(4):1401–1408, 1999; Bates et al., Clinical Pharmacology, Programs and Proceedings of American Society of Clinical Oncology, Abstract 693, 1999; and Chassaing et al., J. Chrmatogr. B 719:169–176, 1998.

[4] = tested on: activated T-cells (peripheral blood lymphocytes); test: Proliferation inhibition assay, CFDA-SE staining; type: cell-based, human; conditions: added at time 0 or 24, 72, 120 hours post-stimulation with 3×28 beads; day 6; FIG. 7
Method: Peripheral blood lymphocytes are prepared as described above, stimulated with 3×28 beads and stained with carboxyfluorescein diacetate succinimidyl ester (CFDA-SE) at day 6 post stimulation. Cell stimulation was carried out as indicated above and the cells were washed twice with PBS and resuspended in media and incubated with CFDA-SE (Molecular Probes, OR). After about 10 minutes of staining, the cells are washed with media and FPS and dye incorporation was measured. FR901228 was added at various time points post-stimulation, at time 0 or at 24, 72, and 120 hours post-stimulation. FIG. 7 depicts flow data generated by CFDA-SE staining. The y-axis sets forth mean fluoresence intensity, which relates to the inverse of cell growth.

A1.1 T-cell hybridoma = conditions: Wang et al., Oncogene 1998; cited from earlier work

With `C/C=C1\NC(=O)[C@H]2CSSCC/C=C/[C@H](CC(=O)N[C@H](C(C)C)C(=O)N2)OC(=O)[C@H](C(C)C)NC1=O` [FR901228] the bulk phosphorylation (bulk phosphorylation) was “does not affect”, the “inhibition of peripheral blood lymphocyte (PBL) proliferation” value ([1]; stimulation by beads having anti-CD3 and anti-CD28 antibodies, FIG. 1) was “dose dependent inhibition” and the “inhibition of peripheral blood lymphocyte (PBL) proliferation” value ([1]; stimulation with Ionomycin/PMA, FIG. 2) was “dose dependent inhibition”. For the same compound, the “DNA synthesis in stimulated CD4 cells” value (CD4 cells [2]) was “DNA synthesis does not take place”, the “concentration with no significant effect on proliferation of CD4 cells” value (CD4 cells [3]; 3×28 beads) was ≤ 1 ng/mL and the “lowest concentration that completely inhibits proliferation of CD4 cells” value (CD4 cells [3]; 3×28 beads) was 10 ng/mL. For the same compound, the “T-cell proliferation on addition of IL-2” value (CD4 cells [3]; addition of 100 U/ml IL-2) was “will not restore proliferation”, the “lowest concentration that significantly inhibits proliferation induced by allogenic dendritic cells” value (CD4 cells [3]; allogenic dendritic cells, MTT day 6) was 1 ng/ml and the “concentration with no significant effect on proliferation of CD4 cells” value (CD4 cells [3]; ionomycin/PMA) was ≤ 1 ng/mL. The “lowest concentration that completely inhibits proliferation of CD4 cells” value (CD4 cells [3]; ionomycin/PMA) was 10 ng/mL, the “inhibition of CD4 positive T-cell proliferation” value (CD4 cells [3]; stimulation by anti-CD3/anti-CD28 beads, FIG. 3) was “dose dependent inhibition” and the “inhibition of CD4 positive T-cell proliferation” value (CD4 cells [3]; stimulation with in vitro generated allogenic dendritic cells, FIG. 4) was “dose dependent inhibition”. The “cell growth of activated T-cells (CFDA-SE mean fluorescence intensity)” value [4] was “inhibited” and the “CD3-induced IL-2 production” value (A1.1 T-cell hybridoma) was “did not inhibit”.
